According to publication PMC12738692, “Identification, characterization, and structure-activity relationship of the ASIC3-selective peptide WRPRFa” (Communications Chemistry, 2025):
Residue numbers refer to the chain shown, from its start. Like-named read-outs stand apart in the source and are kept apart here. Where no end group is shown, it is not given here.

Tests used:
human ASIC3 [1] = target: T1, human ASIC3 (Homo sapiens, UniProt Q9UHC3); type: cell-based; settings: from pH-dependence of activation
T1 construct: CHO cells stably expressing human ASIC3 (NM_004769.1)
T1 sequence (Q9UHC3 1-531): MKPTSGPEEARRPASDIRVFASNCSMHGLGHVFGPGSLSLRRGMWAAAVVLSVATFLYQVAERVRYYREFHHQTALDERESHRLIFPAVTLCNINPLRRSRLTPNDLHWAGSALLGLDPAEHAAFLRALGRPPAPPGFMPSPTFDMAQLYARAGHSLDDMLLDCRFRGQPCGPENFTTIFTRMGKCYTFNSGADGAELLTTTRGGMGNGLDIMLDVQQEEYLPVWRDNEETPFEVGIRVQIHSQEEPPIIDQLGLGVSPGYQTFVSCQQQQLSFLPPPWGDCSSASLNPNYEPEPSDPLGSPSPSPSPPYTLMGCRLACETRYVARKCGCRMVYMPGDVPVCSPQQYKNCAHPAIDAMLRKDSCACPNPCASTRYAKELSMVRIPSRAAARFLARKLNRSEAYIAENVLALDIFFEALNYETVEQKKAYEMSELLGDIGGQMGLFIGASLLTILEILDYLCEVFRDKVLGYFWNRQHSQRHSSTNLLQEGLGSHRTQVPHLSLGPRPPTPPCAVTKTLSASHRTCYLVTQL

ASIC3 E416Q = target: T2, ASIC3 E416Q (Homo sapiens, UniProt Q9UHC3, E416Q); assay: MPC peptide activity on ASIC3 E416Q mutant (incl. double mutant cycle); type: cell-based; settings: read-out: EC50 (95% CI)
T2 construct: human ASIC3 (NM_004769.4); P2A-mCherry reporter (C, cleaved yes); expressed in transfected cells; host or cells: CHO cells (85050302, Sigma), transient transfection
T2 sequence (Q9UHC3 1-531 E416Q): T1 sequence (Q9UHC3 1-531) with E416Q
Experimental: We individually mutated the four glutamates to glutamine to remove their charge but maintain the side chain structure (Fig. 4C). We tested each mutant by incubating HEK cells stably expressing ASIC3 or CHO cells transfected with mutant ASIC3 with 30 µM WRPRFa before a pH 6.3 acid stimulus.
All mutagenesis was performed at Genscript, and sequences were verified by nanopore sequencing by Plasmidsaurus (Eugene, OR). The numbering of ASIC3 amino acids is based on RefSeq NP_004760.1. Plasmids were transfected into CHO cells using Lipofectamine 3000 (Thermo) according to the manufacturer’s protocol. Cells were used for patch-clamp recordings 24–48 h after transfection.
CHO and HEK cells were tested in the whole-cell configuration on MPC platforms using an Axopatch 200B amplifier (Axon Instruments, San Jose, CA) and a Digidata 1322A or Digidata 1440A digitizer (Axon) using pClamp 9.2 or 10.7 (Molecular Devices, San Jose, CA), respectively. When testing transfected cells, red fluorescence from the cleaved mCherry reporter was used to identify cells expressing ASIC3, ASIC131, or ASIC313. For cells expressing transfected ASIC1a or ASIC2a, the green signal from the cleaved eGFP reporter was used. All electrophysiology data were analyzed with Clampfit 11.1 (Molecular Devices).

human ASIC3 [2] = target: T1, human ASIC3; assay: cell-based
human ASIC3 [3] = target: T1, human ASIC3; type: cell-based; settings: 30 µM, QPatch II
human ASIC3 [4] = target: T1, human ASIC3; assay: QPatch II peptide concentration-response (I3s/Ipk); type: cell-based; settings: WT ASIC3, QPatch II, read-out: EC50 (95% CI)
Experimental: RFamide peptide activity on ASIC3 was measured on the QPatch II platform (Sophion, Ballerup, Denmark) using either a CHO or HEK stable cell line and analyzed with Sophion Analyzer software (version 5.2). Prior to recording, the cells were washed twice in PBS (Gibco, Paisley, UK) and treated with Detachin (Genlantis, San Diego) for 3 min, then resuspended in their respective growth media without serum for a concentration of 2 × 10^6 cells/ml. A minimum of 5 mL of cells was added to the QStirrer, which was placed on the deck of the QPatch II and allowed to incubate at room temperature for a minimum of 20 min.
The bath solution contained 135 mM NaCl, 5 mM KCl, 4.8 mM CaCl2, 1 mM MgCl2, 10 mM HEPES, 10 mM MES, and 10 mM glucose adjusted to pH 7.4 with NaOH. The intracellular solution contained 65 mM CsF, 65 mM CsCl, 10 mM HEPES, 5 mM EGTA, 1 mM MgCl2, adjusted to pH 7.4 with CsOH. Cells were held at -60 mV and ASIC currents were evoked with 3 s applications of pH 6.3 buffer. Peptides were preincubated for at least 2 min. The extracellular solution was changed by dispensing 5 µL of buffer through the ~1.7 µL recording chamber, with a solution switch time of 100 ms, that exchanges 99% of the solution. Signals were acquired at 1 kHz and low-pass filtered at 300 Hz. Experiments performed on QPatch II are specifically indicated in the text.

ASIC131 = target: T3, ASIC131 (Homo sapiens, UniProt Q9UHC3); assay: MPC WRPRFa concentration-response on concatemer ASIC131; type: cell-based; settings: read-out: lower limit EC50
T3 construct: placing human ASIC1a and human ASIC3 ORFs in tandem; expressed in transfected cells; host or cells: WT CHO cells (85050302, Sigma), transient transfection
T3 sequence (Q9UHC3 1-531): T1 sequence (Q9UHC3 1-531)
Source text: For peptide concentration-response curves, Bottom was set to 0 and Top was constrained to ≤ 1 for peptides that approached plateau phase or where I3s/Ipk reached 1. […] For activation- or desensitization-pH curves, Bottom was set to 0 and Top constrained to 1.

Substance: WRPRF-NH2 [WRPRFa]
- peptide-bound channels activated by pH 6.3 (human ASIC3 [1]): 99.7%
- EC50 (ASIC3 E416Q): 2470 nM
- EC50 (human ASIC3 [2]): 6.22 µM
- channels affected (human ASIC3 [2]; 100 µM, MPC): ~90%
- channels affected (human ASIC3 [3]): 80%
- EC50 (human ASIC3 [4]): 6.31 µM
- EC50 (ASIC131): ≥ 32.4 µM
